Key:
Type in all cases: in vivo
[1] = test system: green peach aphid (Myzus persicae); assay: Myzus persicae spray test; details: 120 h, after 5 days; for mortality at 100 g/ha: application rate 100 g/ha
Outline: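 Chinese cabbage leaf disks carrying all instars of M. persicae sprayed with compound in acetone/DMF, diluted in water with 1000 ppm alkylarylpolyglycol ether emulsifier. Percent mortality scored after 5 days (100% = all aphids killed).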

[2] = test system: green peach aphid (Myzus persicae); assay: Myzus persicae oral test; details: 120 h, application rate 4 ppm, after 5 days
Outline: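 Readout: % mortality at day 5, where 100% = all aphids dead and 0% = none dead. Feeding via parafilm membrane over compound in IPL41 medium (33%+15% sugar); mixed-age population. Stock in acetone (1:100 w/w), water-diluted.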

[3] = test system: Aedes aegypti strain MONHEIM; assay: Aedes aegypti test (AEDSAE surface treatment & contact assay); details: 24 hours after contact, read-out: efficacy (mortality); for mortality at 4 mg/m2: surface concentration 4 mg/m^2, exposure 30 minutes; for mortality at 20 mg/m2: surface concentration 20 mg/m^2, exposure 30 minutes
Outline: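 Percent mortality was read 24 h after adult MONHEIM mosquitoes were held for 30 min on a tile treated with compound. Compound applied from acetone solution (2 mg/ml) containing 2000 ppm rapeseed oil methyl ester, after evaporation.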

[4] = test system: larvae of the banded cucumber beetle (Diabrotica balteata); assay: Diabrotica balteata spray test; details: 168 h, after 7 days, read-out: activity (efficacy: seedlings grown); for pest or weed control at 100 g/ha: application rate 100 g/ha (=32 pg/well); for pest or weed control at 500 g/ha: application rate 500 g/ha (=160 pg/well)
Outline: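 Read-out is % efficacy at day 7, 0% meaning no seedling growth and 100% growth equal to uninfested untreated controls. Test solutions (acetone/DMF concentrate diluted with water carrying 1000 ppm emulsifier) were sprayed onto 1-day-germinated wheat seeds, 5 per well, before infestation with 10-20 larvae.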

[5] = test system: larvae of the southern green stink bug (Nezara viridula); assay: Nezara viridula spray test; details: 96 h, after 4 days; for mortality at 100 g/ha: application rate 100 g/ha; for mortality at 500 g/ha: application rate 500 g/ha
Outline: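 Larva-infested barley (Hordeum vulgare) plants received a spray of test solution prepared from an acetone/DMF concentrate diluted in emulsifier-containing water (1000 ppm). Percent kill read 4 days later; 0% means no stink bugs dead.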

[6] = test system: Anopheles funestus strain FUMOZ-R; assay: Anopheles funestus test (ANPHFU surface treatment & contact assay); details: 24 hours after contact, read-out: efficacy (mortality); for mortality at 4 mg/m2: surface concentration 4 mg/m^2, exposure 30 minutes; for mortality at 20 mg/m2: surface concentration 20 mg/m^2, exposure 30 minutes
Method: Anopheles funestus Test (ANPHFU Surface Treatment & Contact Assay)
(§1) Solvent: Aceton+2000 ppm rapeseed oil methyl ester (RME)
(§2) In order to produce a sufficient, active ingredient containing solution it is necessary to solve the test compound in the solvent-mix (acetone at 2 mg/ml/RME 2000 ppm). This solution is pipetted onto a glazed tile and after evaporation of the acetone, adult mosquitoes of the species Anopheles funestus strain FUMOZ-R (Hunt et al., Med. Vet. Entomol. 2005 September; 19(3): 271-275) are placed onto the dried surface. The exposure time is 30 minutes. Mortality in percent (%) is determined 24 hours after contact of the insects to the treated surface. 100% mortality means that all tested insects are dead, whereas 0% means that no insect died.

[7] = test system: brown planthopper (Nilaparvata lugens); assay: Nilaparvata lugens spray test; details: 96 h, after 4 days; for mortality at 500 g/ha: application rate 500 g/ha
Method: Nilaparvata lugens—Spray Test
Solvent: 78.0 parts by weight of acetone • • 1.5 parts by weight of dimethylformamide
Emulsifier: alkylarylpolyglycol ether
To produce a suitable preparation of active compound, 1 part by weight of active compound is mixed with the stated amount of solvents and is diluted with water, containing an emulsifier concentration of 1000 ppm, to the desired concentration. Further test concentrations are prepared by dilution with emulsifier containing water.
Rice plants (Oryza sativa) are sprayed with a preparation of the active ingredient of the desired concentration and the plants are infested with the brown planthopper (Nilaparvata lugens).
After 4 days mortality in % is determined. 100% means all planthoppers have been killed and 0% means none of the planthoppers have been killed.

[8] = test system: fall armyworm larvae (Spodoptera frugiperda); assay: Spodoptera frugiperda spray test; details: 168 h, read-out: activity (mortality)
Outline: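 Larvae of fall armyworm placed on dried maize leaf sections previously sprayed with emulsified compound (acetone/DMF solvent, water with 1000 ppm emulsifier). Percent of caterpillars killed recorded on day 7, 0–100% scale.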

[9] = test system: adult cat fleas (Ctenocephalides felis); assay: Ctenocephalides felis in-vitro contact test, adult cat flea; details: application rate 5 μg/cm^2 (=500 g/ha), after 48 hours, read-out: activity (efficacy: fleas dead or moribund)
Outline: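 Efficacy, as % of fleas dead or moribund, was read 48 h after 5-10 adult cat fleas were confined in glass tubes whose walls carried dried compound film (900 ppm, […]). Fleas failing to escape upward from a 45-50° C plate within 5 min counted as dead or moribund.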

[10] = test system: adult unfed cat fleas (Ctenocephalides felis); assay: Ctenocephalides felis oral test; details: 48 h, read-out: activity (mortality)
Outline: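 About 20 adult unfed fleas fed through parafilm on cattle blood containing compound (DMSO stock diluted in blood), blood held at 37 °C and fleas at room temperature. Mortality (%) scored after 2 days.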

[11] = test system: adult engorged female ticks (Rhipicephalus microplus); assay: Rhipicephalus (Boophilus) microplus injection test; details: 168 h, egg deposition after 7 days, read-out: activity (efficacy: infertile eggs); for pest or weed control at 4 pg: application rate 4 pg/animal; for pest or weed control at 0.02 mg: application rate 20 μg/animal
Outline: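 Abdominal injection, 1 μL compound/DMSO, n=5 engorged adult females; climate-chamber incubation. Readout d7: fertile egg laying; doubtful eggs held to hatch (~42 d). % efficacy = infertile eggs (100% all infertile).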

[12] = test system: Rhipicephalus microplus larvae (strain Parkhurst, resistant against synthetic pyrethroids); assay: Rhipicephalus (Boophilus) microplus in-vitro contact test, larval cattle tick; details: after 48 hours, read-out: activity (efficacy: larvae dead or moribund); for pest or weed control at 100 g/ha: application rate 1 pg/cm^2 (=100 g/ha); for pest or weed control at 500 g/ha: application rate 5 pg/cm^2 (=500 g/ha)
Outline: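 Larvae (20-50 per tube) exposed to dry compound film on glass tube walls, 5 μg/cm^2 at 900 ppm, applied from acetone. After 48 h at 27° C./85% RH, tubes tapped and negative geotaxis scored; efficacy as percent dead or moribund larvae.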

[13] = test system: adult brown dog ticks (Rhipicephalus sanguineus); assay: Rhipicephalus sanguineus in-vitro contact test, adult brown dog ticks; details: after 48 hours, read-out: activity (efficacy: ticks dead or moribund); for pest or weed control at 100 g/ha: application rate 1 pg/cm^2 (=100 g/ha); for pest or weed control at 5 µg/cm2, 500 g/ha: application rate 5 μg/cm^2 (=500 g/ha)
Outline: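 Read-out: % efficacy as dead or moribund ticks, judged 48 h after exposure by failure to climb away from a 45-50° C heating plate within 5 min. Tubes were coated with acetone solution (900 ppm = 5 μg/cm^2 surface dose) and held 5-10 adults each at room temperature.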

[14] = test system: Musca domestica strain WHO-N; assay: Musca domestica test (MUSCDO surface treatment & contact assay); details: surface concentration 20 mg/m^2, exposure 30 minutes, 24 hours after contact, read-out: efficacy (mortality)
Method: Musca domestica Test (MUSCDO Surface Treatment & Contact Assay)
as §1
as §2, with “flies” for “mosquitoes”, “Musca domestica” for “Anopheles funestus”, “WHO—N” for “FUMOZ-R (Hunt et al., Med. Vet. Entomol. 2005 September; 19(3): 271-275)”

[15] = test system: Culex quinquefasciatus strain P00; assay: Culex quinquefasciatus test (CULXFA surface treatment & contact assay); details: 24 hours after contact, read-out: efficacy (mortality); for mortality at 4 mg/m2: surface concentration 4 mg/m^2, exposure 30 minutes
Method: Culex quinquefasciatus Test (CULXFA Surface Treatment & Contact Assay)
as §1
as §2, with “2 000” for “2000”, “Culex quinquefasciatus” for “Anopheles funestus”, “P00” for “FUMOZ-R (Hunt et al., Med. Vet. Entomol. 2005 September; 19(3): 271-275)”

CC(NC(=O)c1cc(Cl)cc(S(C)(=O)=O)c1)c1nc(Cl)nn1-c1ncccn1 (racemic) [I-29, 3-chloro-N-[1-(5-chloro-2-pyrimidin-2-yl-1,2,4-triazol-3-yl)ethyl]-5-methylsulfonyl-benzamide]
100%: mortality at 4 ppm [2] | pest or weed control at 100 g/ha [4]
80 to 100%: mortality at 4 mg/m2 [3] | mortality at 20 mg/m2 [3] | mortality at 4 mg/m2 [6] | mortality at 20 mg/m2 [6]
90%: mortality at 100 g/ha [1] | mortality at 100 g/ha [5]

CC(NC(=O)c1cc(C(F)(F)F)cc(S(C)(=O)=O)c1)c1nc(Br)nn1-c1ncccn1 (stereo not drawn) [I-38]
100%: mortality at 4 ppm [2] | mortality at 100 g/ha ([7]; application rate 100 g/ha) | pest or weed control at 100 g/ha [4] | mortality at 100 g/ha [5]
90%: mortality at 100 g/ha [1]

COc1nc([C@H](C)NC(=O)c2cc(OC(F)(F)F)cc(S(C)(=O)=O)c2)n(-c2ncc(Cl)cn2)n1 [I-77]
100%: mortality at 100 g/ha [1] | mortality at 500 g/ha [7] | pest or weed control at 100 g/ha [4] | mortality at 500 g/ha [5] | mortality at 100 g/ha [8]

COc1nc([C@H](C)NC(=O)c2cc(C(F)F)cc(S(C)(=O)=O)c2)n(-c2ncc(Cl)cn2)n1 [I-88]
100%: mortality at 500 g/ha [7] | pest or weed control at 100 g/ha [4] | mortality at 500 g/ha [5]

C[C@H](NC(=O)c1cc(OC(F)(F)F)cc(S(=O)(=O)C2CC2)c1)c1nc(C2CC2)nn1-c1ncc(Cl)cn1 [I-93]
100%: mortality at 100 g/ha [1] | pest or weed control at 100 g/ha [4] | mortality at 500 g/ha [5] | mortality at 100 g/ha [8]
90%: mortality at 500 g/ha [7]

C[C@H](NC(=O)c1cc(C(F)(F)F)cc(S(C)(=O)=O)c1)c1nc(Br)nn1-c1ncccn1 [I-95, N-[(1S)-1-(5-bromo-2-pyrimidin-2-yl-1,2,4-triazol-3-yl)ethyl]-3-methylsulfonyl-5-(trifluoromethyl)benzamide]
90%: mortality at 100 g/ha [1]
100%: mortality at 500 g/ha [7] | pest or weed control at 100 g/ha [4] | mortality at 100 g/ha [8]

C[C@H](NC(=O)c1cc(C(F)(F)F)cc(S(C)(=O)=O)c1)c1nc(Cl)nn1-c1ncccn1 [I-96, N-[(1S)-1-(5-chloro-2-pyrimidin-2-yl-1,2,4-triazol-3-yl)ethyl]-3-methylsulfonyl-5-(trifluoromethyl)benzamide]
100%: mortality at 500 g/ha [7] | pest or weed control at 100 g/ha [4] | mortality at 500 g/ha [5] | mortality at 100 g/ha [8]

C[C@H](NC(=O)c1cncc(C2CC2)c1)c1ncnn1-c1ccc(C#N)cn1 [II-1]
100%: mortality at 500 g/ha [8]
80 to 100%: mortality at 4 mg/m2 [3] | mortality at 4 mg/m2 [6]

Cc1nc([C@H](C)NC(=O)c2csc(Cl)c2)n(-c2ccc(C#N)cn2)n1 [II-8]
80%: pest or weed control at 4 pg [11]
80 to 100%: mortality at 4 mg/m2 [3] | mortality at 20 mg/m2 [3] | mortality at 20 mg/m2 [6]
100%: pest or weed control at 5 µg/cm2 [9] | pest or weed control at 100 g/ha [4] | pest or weed control at 500 g/ha [4] | mortality at 100 ppm [10] | pest or weed control at 0.02 mg [11] | mortality at 500 g/ha [8] | pest or weed control at 100 g/ha [12] | pest or weed control at 500 g/ha [12]
83%: mortality at 100 g/ha [8]

C[C@H](NC(=O)c1csc(Cl)c1)c1ncnn1-c1ncccn1 [II-30]
80 to 100%: mortality at 4 mg/m2 [3] | mortality at 20 mg/m2 [3] | mortality at 4 mg/m2 [6]
100%: pest or weed control at 100 g/ha [13] | pest or weed control at 5 µg/cm2, 500 g/ha [13] | pest or weed control at 500 g/ha [4] | mortality at 100 ppm [10] | pest or weed control at 4 pg [11] | pest or weed control at 0.02 mg [11] | pest or weed control at 100 g/ha [12] | pest or weed control at 500 g/ha [12]
90%: mortality at 500 g/ha ([1]; application rate 500 g/ha) | pest or weed control at 5 µg/cm2 [9]

C[C@H](NC(=O)c1cc(Cl)cc(S(=O)(=O)C(F)F)c1)c1ncnn1-c1ccc(Cl)cn1 [II-37]
80 to 100%: mortality at 4 mg/m2 [3] | mortality at 20 mg/m2 [3] | mortality at 20 mg/m2 [14] | mortality at 4 mg/m2 [15] | mortality at 20 mg/m2 ([15]; surface concentration 20 mg/m^2, exposure 30 minutes)
100%: pest or weed control at 100 g/ha [4] | pest or weed control at 500 g/ha [4] | mortality at 100 ppm [10] | pest or weed control at 4 pg [11] | pest or weed control at 0.02 mg [11] | mortality at 100 g/ha [8] | mortality at 500 g/ha [8] | pest or weed control at 100 g/ha [12] | pest or weed control at 500 g/ha [12]

C[C@H](NC(=O)c1cc(C(F)(F)F)cc(S(=O)(=O)C2CC2)c1)c1ncnn1-c1ccc(Cl)cn1 [II-46]
100%: pest or weed control at 100 g/ha [13] | pest or weed control at 100 g/ha [4] | pest or weed control at 4 pg [11] | pest or weed control at 0.02 mg [11] | mortality at 100 g/ha [8] | pest or weed control at 100 g/ha [12] | pest or weed control at 500 g/ha [12]
80 to 100%: mortality at 4 mg/m2 [3] | mortality at 20 mg/m2 [3] | mortality at 20 mg/m2 [14] | mortality at 4 mg/m2 [15]
90%: mortality at 100 ppm [10]
80%: pest or weed control at 5 µg/cm2, 500 g/ha [13]
